Source: PubChem BioAssay (NCI)
“And” between values parts separate entries of the source, which are not always exact repeats. Identical values can stand only once.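 48-hour exposure; five concentrations; linearly interpolated endpoints. GI50: concentration for 50% inhibition of growth. At the TGI there is no net growth.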

Columns and labels:
Test in all cases: NCI tumour cell line growth inhibition, 48 h
[1] = test system: HT29 colon
[2] = test system: SN12K1 renal
[3] = test system: SK-MEL-28 melanoma
[4] = test system: UO-31 renal
[5] = test system: 786-0 renal
[6] = test system: A549 NSCLC
[7] = test system: MDA-N
[8] = test system: DMS 114 small cell lung
[9] = test system: ACHN renal
[10] = test system: LXFL 529 NSCLC
[11] = test system: SW-620 colon
[12] = test system: HS 578T breast
[13] = test system: HOP-92 NSCLC
[14] = test system: A498 renal
[15] = test system: RPMI-8226 leukemia
[16] = test system: HOP-62 NSCLC
[17] = test system: SR leukemia
[18] = test system: MDA-MB-435
[19] = test system: UACC-62 melanoma
[20] = test system: NCI-H522 lung
[21] = test system: UACC-257 melanoma
[22] = test system: BT-549 breast
[23] = test system: DU-145 prostate
[24] = test system: DLD-1 colon
[25] = test system: SNB-75 CNS
[26] = test system: MDA-MB-231 breast
[27] = test system: NCI-H460 lung
[28] = test system: MCF7 breast
[29] = test system: P388/ADR leukemia
[30] = test system: NCI-H226 lung
[31] = test system: SF-539 CNS
[32] = test system: SK-OV-3 ovarian
[33] = test system: P388 leukemia
[34] = test system: SK-MEL-5 melanoma
[35] = test system: XF 498 CNS
[36] = test system: M14 melanoma
[37] = test system: SNB-19 CNS
[38] = test system: SK-MEL-2 melanoma
[39] = test system: EKVX NSCLC
[40] = test system: HCT-15 colon
[41] = test system: NCI/ADR-RES ovarian
[42] = test system: MOLT-4 leukemia
[43] = test system: M19-MEL melanoma
[44] = test system: SF-268 CNS
[45] = test system: K-562 leukemia
[46] = test system: OVCAR-4 ovarian
[47] = test system: HCC-2998 colon
[48] = test system: NCI-H23 lung
[49] = test system: KM12 colon
[50] = test system: CCRF-CEM leukemia
[51] = test system: SNB-78 CNS
[52] = test system: OVCAR-8 ovarian
[53] = test system: LOX IMVI melanoma
[54] = test system: HOP-18 NSCLC
[55] = test system: SN12C renal
[56] = test system: MALME-3M melanoma
[57] = test system: DMS 273 small cell lung
[58] = test system: TK-10 renal
[59] = test system: KM20L2 colon
[60] = test system: SF-295 CNS
[61] = test system: HCT-116 colon
[62] = test system: CAKI-1 renal
[63] = test system: OVCAR-5 ovarian
[64] = test system: OVCAR-3 ovarian
[65] = test system: RXF-631 renal
[66] = test system: COLO 205 colon
[67] = test system: U251 CNS
[68] = test system: IGROV1 ovarian
[69] = test system: RXF 393 renal

## COC(C(=O)C(O)C(C)O)C1Cc2cc3cc(OC4CC(OC(C)=O)C(OC5CC(O)C(OC)C(C)O5)C(C)O4)cc(O)c3c(O)c2C(=O)C1OC1CC(OC2CC(OC3CC(C)(O)C(OC(=O)C(C)C)C(C)O3)C(O)C(C)O2)C(O)C(C)O1 (stereo not drawn)
[1]
  TGI: 0.991 µM and 3.48 µM and 2.1 µM
[2]
  TGI: 0.0126 µM
[3]
  GI50: 0.000911 µM and 0.00146 µM
[4]
  GI50: 0.399 µM and 0.46 µM
  TGI: 4.1 µM and 5.22 µM
[5]
  GI50: 0.0763 µM and 0.0168 µM
  TGI: 0.826 µM
[6]
  GI50: 0.0328 µM and 0.00452 µM
  TGI: 12.3 µM and 11.1 µM
[7]
  TGI: 0.252 µM
[8]
  TGI: 0.084 µM and 0.017 µM and 0.0165 µM
[9]
  TGI: 0.198 µM
[10]
  GI50: 0.0174 µM
  TGI: 0.124 µM
[11]
  TGI: 3.98 µM and 2.22 µM
[12]
  TGI: 0.175 µM
[13]
  GI50: 0.0383 µM and 0.00429 µM
  TGI: 0.288 µM and 0.039 µM
[14]
  GI50: 0.154 µM and 0.0248 µM
[15]
  TGI: 0.202 µM and 0.14 µM
[16]
  GI50: 0.0795 µM and 0.0102 µM and 0.00856 µM
[17]
  TGI: 0.385 µM
[18]
  TGI: 0.21 µM
[19]
  GI50: 0.00129 µM
[20]
  GI50: 0.000196 µM
[21]
  GI50: 0.00348 µM and < 0.0155 µM
  TGI: 0.0977 µM and 0.0249 µM and < 0.0492 µM
[22]
  TGI: 0.0444 µM
[23]
  TGI: 0.569 µM
[24]
  GI50: 0.298 µM and 0.0325 µM
  TGI: 8.61 µM and > 27.3 µM
[25]
  GI50: 0.00157 µM
  TGI: 0.0626 µM and 0.0109 µM and 0.0075 µM
[26]
  TGI: 0.551 µM
[27]
  GI50: 0.0261 µM and 0.0113 µM and 0.00305 µM
[28]
  GI50: 0.0465 µM
  TGI: 0.327 µM and < 0.215 µM
[29]
  TGI: 75 µM and > 100 µM
[30]
  TGI: 0.148 µM and 0.0893 µM
[31]
  GI50: 0.000553 µM
[32]
  GI50: 0.0217 µM and 0.0423 µM
[33]
  TGI: 0.237 µM and 0.0293 µM
[34]
  GI50: 0.0094 µM and 0.00174 µM
[35]
  GI50: 0.00637 µM and 0.00134 µM
[36]
  TGI: 0.257 µM and 0.0292 µM
[37]
  GI50: 0.0897 µM and 0.01 µM
  TGI: 53.9 µM and > 100 µM
[38]
  GI50: 0.0189 µM
  TGI: 0.042 µM and 0.0104 µM
[39]
  GI50: 0.0723 µM
[40]
  GI50: 0.455 µM
  TGI: 22.4 µM and 34.5 µM
[41]
  TGI: 63.7 µM and > 100 µM
[42]
  TGI: 0.306 µM and 0.147 µM

## COc1ccc(C(Cc2cc(OC)c(OC)c(OC)c2)C(=O)O)cc1 (stereo not drawn)
[43]
  TGI: > 100 µM
[1]
  TGI: > 100 µM
[44]
  TGI: > 100 µM
[45]
  TGI: > 100 µM
[46]
  TGI: > 100 µM
[47]
  TGI: > 100 µM
[48]
  TGI: > 100 µM
[3]
  TGI: > 100 µM
[4]
  TGI: > 100 µM
[5]
  TGI: > 100 µM
[6]
  TGI: > 100 µM
[49]
  TGI: > 100 µM
[8]
  TGI: > 100 µM
[9]
  TGI: > 100 µM
[11]
  TGI: > 100 µM
[14]
  TGI: > 100 µM
[15]
  TGI: > 100 µM
[50]
  TGI: > 100 µM
[16]
  TGI: > 100 µM
[51]
  TGI: > 100 µM
[52]
  TGI: > 100 µM
[53]
  TGI: > 100 µM
[54]
  TGI: > 100 µM
[19]
  TGI: > 100 µM
[55]
  TGI: > 100 µM
[21]
  TGI: > 100 µM
[56]
  TGI: > 100 µM
[57]
  TGI: > 100 µM
[58]
  TGI: > 100 µM
[24]
  TGI: > 100 µM
[25]
  TGI: 65.2 µM
[59]
  TGI: > 100 µM
[27]
  TGI: > 100 µM
[30]
  TGI: > 100 µM
[31]
  TGI: > 100 µM
[60]
  TGI: 84.8 µM
[61]
  TGI: > 100 µM
[32]
  TGI: > 100 µM
[62]
  TGI: > 100 µM
[34]
  TGI: > 100 µM
[63]
  TGI: > 100 µM
[35]
  TGI: > 100 µM
[64]
  TGI: 84.7 µM
[36]
  TGI: > 100 µM
[37]
  TGI: > 100 µM
[65]
  TGI: > 100 µM
[66]
  TGI: > 100 µM
[38]
  TGI: > 100 µM
[39]
  TGI: > 100 µM
[40]
  TGI: > 100 µM
[67]
  TGI: > 100 µM
[68]
  TGI: > 100 µM

## O=C(c1ccccc1)[C@H]1Nc2ccc(Cl)cc2[C@H]2OCCC[C@@H]12
[43]
  TGI: 49.1 µM
[1]
  TGI: 35.3 µM
[44]
  TGI: 39.5 µM
[45]
  TGI: 51.4 µM
[46]
  TGI: 45 µM
[47]
  TGI: 45.8 µM
[48]
  TGI: 52 µM
[69]
  TGI: 32.4 µM
[3]
  TGI: 32.2 µM
[4]
  TGI: 33 µM
[49]
  TGI: 34.1 µM
[8]
  TGI: 37.1 µM
[9]
  TGI: 93.5 µM
[10]
  TGI: 33.5 µM
[11]
  TGI: 39.1 µM
[15]
  TGI: 57.7 µM
[16]
  TGI: 32.6 µM
[51]
  TGI: 72.1 µM
[52]
  TGI: 41.9 µM
[53]
  TGI: 31.2 µM
[17]
  TGI: 79.2 µM
[54]
  TGI: 55.7 µM
[19]
  TGI: 33.5 µM
[55]
  TGI: 37.5 µM
[20]
  TGI: 36.8 µM
[56]
  TGI: 48.1 µM
[57]
  TGI: 39 µM
[58]
  TGI: 64.6 µM
[59]
  TGI: 39.4 µM
[27]
  TGI: 34.5 µM
[30]
  TGI: 47.7 µM
[60]
  TGI: 32.8 µM
[61]
  TGI: 31.5 µM
[62]
  TGI: 63 µM
[63]
  TGI: 35.3 µM
[35]
  TGI: 33.6 µM
[64]
  TGI: 30.7 µM
[36]
  TGI: 31.9 µM
[37]
  TGI: 90.3 µM
[65]
  TGI: 34.5 µM
[66]
  TGI: 45.7 µM
[38]
  TGI: 43.9 µM
[39]
  TGI: 50.4 µM
[40]
  TGI: 43.8 µM
[67]
  TGI: 31.7 µM
[68]
  TGI: > 100 µM
[42]
  TGI: 61.7 µM
